Legend:
Experiment in all cases: relative viability (nuclei count vs DMSO), 5 days (fraction); higher = more cells survive
XMD13-2 + Trametinib = compound: C1CC1C(=O)NC2=NNC3=C2C=CC(=C3)C4=CC(=CC=C4)C(=O)NC5CC5 [XMD13-2] + CC(=O)Nc1cccc(-n2c(=O)n(C3CC3)c(=O)c3c(Nc4ccc(I)cc4F)n(C)c(=O)c(C)c32)c1 [Trametinib] (partner 0.02 µM)
How it was run: (§1)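 Relative viability is defined as nuclei in treated wells over nuclei in vehicle wells. Duplicate plates were run and medians reported. Lung cancer cell lines in 1536-well plates were dosed by pin tool one day after seeding, with one drug or with a fixed anchor-drug dose plus five library-drug doses (not always all listed) in √10 steps, and nuclei were counted after 5 days.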

ALW-II-49-7 + Dasatinib = compound: Cc1ccc(C(=O)Nc2cccc(C(F)(F)F)c2)cc1Nc1cncc(C(N)=O)c1 [ALW-II-49-7] + Cc1nc(Nc2ncc(C(=O)Nc3c(C)cccc3Cl)s2)cc(N2CCN(CCO)CC2)n1 [Dasatinib] (partner 0.075 µM)
How it was run: as §1

XMD13-2 + Dasatinib = compound: C1CC1C(=O)NC2=NNC3=C2C=CC(=C3)C4=CC(=CC=C4)C(=O)NC5CC5 [XMD13-2] + Cc1nc(Nc2ncc(C(=O)Nc3c(C)cccc3Cl)s2)cc(N2CCN(CCO)CC2)n1 [Dasatinib] (partner 0.075 µM)
How it was run: as §1

ALW-II-49-7 + Linsitinib = compound: Cc1ccc(C(=O)Nc2cccc(C(F)(F)F)c2)cc1Nc1cncc(C(N)=O)c1 [ALW-II-49-7] + C[C@]1(O)C[C@@H](c2nc(-c3ccc4ccc(-c5ccccc5)nc4c3)c3c(N)nccn32)C1 [Linsitinib] (partner 1 µM)
How it was run: as §1

| Cell Line | relative viability (XMD13-2 + Trametinib; first compound 0.05 µM) | relative viability (XMD13-2 + Trametinib; first compound 0.1581 µM) | relative viability (XMD13-2 + Trametinib; first compound 0.5 µM) | relative viability (XMD13-2 + Trametinib; first compound 1.581 µM) | relative viability (XMD13-2 + Trametinib; first compound 5 µM) | relative viability (ALW-II-49-7 + Dasatinib; first compound 0.08 µM) | relative viability (ALW-II-49-7 + Dasatinib; first compound 0.253 µM) | relative viability (ALW-II-49-7 + Dasatinib; first compound 0.8 µM) | relative viability (ALW-II-49-7 + Dasatinib; first compound 2.53 µM) | relative viability (ALW-II-49-7 + Dasatinib; first compound 8 µM) | relative viability (XMD13-2 + Dasatinib; first compound 0.05 µM) | relative viability (XMD13-2 + Dasatinib; first compound 0.1581 µM) | relative viability (XMD13-2 + Dasatinib; first compound 0.5 µM) | relative viability (XMD13-2 + Dasatinib; first compound 1.581 µM) | relative viability (XMD13-2 + Dasatinib; first compound 5 µM) | relative viability (ALW-II-49-7 + Linsitinib; first compound 0.08 µM) | relative viability (ALW-II-49-7 + Linsitinib; first compound 0.253 µM) | relative viability (ALW-II-49-7 + Linsitinib; first compound 0.8 µM) | relative viability (ALW-II-49-7 + Linsitinib; first compound 2.53 µM) | relative viability (ALW-II-49-7 + Linsitinib; first compound 8 µM) |
| --- | --- | --- | --- | --- | --- | --- | --- | --- | --- | --- | --- | --- | --- | --- | --- | --- | --- | --- | --- | --- |
| HCC-366 | 0.413 | 0.334 | 0.412 | 0.286 | 0.331 | 0.694 | 0.75 | 0.591 | 0.528 | 0.7 | 0.775 | 0.48 | 0.783 | 0.585 | 0.662 | 0.68 | 0.636 | 0.698 | 0.682 | 0.791 |
| HCC-827 | 0.611 | 0.502 | 0.528 | 0.49 | 0.473 | 0.326 | 0.331 | 0.294 | 0.232 | 0.239 | 0.321 | 0.21 | 0.317 | 0.253 | 0.337 | 0.94 | 1.06 | 0.962 | 0.981 | 1.08 |
| HOP-62 | 0.397 | 0.4 | 0.443 | 0.426 | 0.407 | 0.635 | 0.617 | 0.56 | 0.616 | 0.495 | 0.699 | 0.689 | 0.794 | 0.605 | 0.6 | 0.889 | 1.13 | 1.03 | 0.866 | 0.813 |
| IA-LM | – | – | – | – | – | – | – | – | – | – | – | – | – | – | – | 0.627 | 0.342 | 0.378 | 0.449 | 0.135 |
| LC-2-ad | 0.934 | 0.938 | 0.961 | 0.936 | 0.93 | 0.481 | 0.412 | 0.501 | 0.7 | 0.387 | 0.899 | 0.39 | 0.711 | 0.535 | 0.559 | 0.834 | 0.86 | 0.764 | 0.86 | 0.836 |
| LCLC-97TM1 | 0.225 | 0.198 | 0.217 | 0.17 | 0.179 | 0.808 | 0.944 | 0.808 | 0.88 | 0.851 | 0.829 | 0.784 | 0.839 | 0.728 | 0.695 | 0.19 | 0.171 | 0.174 | 0.176 | 0.155 |
| LCLC-103H | 0.66 | 0.677 | 0.742 | 0.738 | 0.76 | 0.392 | 0.429 | 0.393 | 0.419 | 0.411 | 0.688 | 0.46 | 0.445 | 0.515 | 0.527 | 0.994 | 1.15 | 1.16 | 1.15 | 1.05 |
| LK-2 | 1.1 | 0.785 | 0.779 | 0.583 | 0.571 | – | 0.271 | 0.252 | 0.31 | 0.336 | 0.343 | 0.276 | 0.361 | 0.304 | 0.234 | 0.546 | 0.722 | 0.399 | – | 0.654 |
| LOU-NH91 | 0.802 | 0.726 | 0.793 | 0.729 | 0.85 | 0.544 | 0.588 | 0.521 | 0.504 | 0.414 | 0.591 | 0.586 | 0.566 | 0.479 | 0.525 | 0.928 | 0.97 | 0.93 | 0.528 | 0.977 |
| LU99A | 0.581 | 0.532 | 0.546 | 0.54 | 0.352 | 0.62 | 0.486 | 0.576 | 0.498 | 0.75 | 0.572 | 0.646 | 0.649 | 0.503 | 0.456 | 0.569 | 0.464 | 0.573 | 0.421 | 0.589 |
| LXF-289 | 0.672 | 0.73 | 0.731 | 0.642 | 0.731 | 0.213 | 0.286 | 0.24 | 0.187 | 0.183 | 0.301 | 0.239 | 0.242 | 0.141 | 0.205 | 0.935 | 0.958 | 1.04 | 1.1 | 1.09 |
| NCI-H522 | 0.852 | 0.688 | 0.82 | 0.711 | 0.759 | 0.979 | 0.81 | 1.05 | 0.772 | 0.987 | 0.81 | 0.891 | 0.94 | 0.821 | 0.792 | – | – | – | – | – |
| NCI-H1299 | – | – | – | – | – | – | – | – | – | – | – | – | – | – | – | 1.02 | 1.05 | 0.696 | 0.721 | 0.423 |
| NCI-H1563 | – | – | – | – | – | 0.442 | 0.466 | 0.441 | 0.477 | 0.486 | 0.485 | 0.435 | 0.43 | 0.436 | 0.506 | 1.18 | 1.18 | 1.31 | 1.34 | 1.22 |
| NCI-H1623 | – | – | – | – | – | 0.465 | 0.531 | 0.618 | 0.532 | 0.479 | 0.533 | 0.52 | 0.467 | 0.526 | 0.585 | – | – | – | – | – |
| NCI-H1648 | 0.526 | – | 0.454 | 0.55 | 0.374 | – | – | – | – | – | – | – | – | – | – | – | – | – | – | – |
| NCI-H1650 | 0.852 | 0.663 | 0.65 | 0.526 | 0.695 | 0.273 | 0.306 | 0.323 | 0.282 | 0.341 | 0.268 | 0.367 | 0.318 | 0.282 | 0.296 | – | – | – | – | – |
| NCI-H1703 | – | – | – | – | – | – | – | – | – | – | – | – | – | – | – | 0.564 | 0.78 | 0.567 | 0.277 | 0.224 |
| NCI-H2170 | 0.94 | 0.929 | 0.965 | 0.883 | 0.95 | 0.725 | 0.531 | 0.608 | 0.512 | 0.614 | 0.791 | 0.518 | 0.601 | 0.55 | 0.541 | – | – | – | – | – |
| NCI-H2342 | 0.766 | 0.917 | 0.697 | 0.912 | 0.822 | 0.303 | 0.299 | 0.327 | 0.3 | 0.314 | 0.334 | 0.357 | 0.334 | 0.313 | 0.349 | – | – | – | – | – |
| SW 900 | 0.924 | 0.943 | 0.993 | 0.859 | 0.881 | 0.607 | 0.565 | 0.559 | 0.565 | 0.478 | 0.616 | 0.537 | 0.601 | 0.578 | 0.652 | – | – | – | – | – |

From the supplement of paper PMC10307832
